Common to all, as to test: DTP human tumour cell line panel, 48 h
For experiment [1], the system named is CAKI-1 renal.
Experiment [2] relates to CCRF-CEM leukemia.
Experiment [3] concerns HL-60(TB) leukemia.
The test system of experiment [4] is HS 578T breast.
Experiment [5] has as its system M14 melanoma.
For experiment [6], the system named is MDA-MB-435.
Experiment [7] deals with MDA-N.
The subject of experiment [8] is NCI-H522 lung.
For experiment [9], the system named is OVCAR-5 ovarian.
Experiment [10] has as its system SF-539 CNS.
In experiment [11] the test system is SK-MEL-5 melanoma.
Experiment [12] has as its system SN12C renal.
Experiment [13] deals with SW-620 colon.
For experiment [14], the system named is TK-10 renal.
The subject of experiment [15] is UACC-62 melanoma.
The test system of experiment [16] is UO-31 renal.
Experiment [17] has as its system SNB-19 CNS.

“And” between values parts separate entries of the source, which are not always exact repeats. Equal entries are not always repeated.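 Five concentrations, 48 hours, 96-well plates. GI50: concentration for 50% inhibition of growth. TGI marks complete inhibition of growth.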 *1 amine or outer side, *2 acyl side, *3 side chain or, on linkers, in order; H or OH if unused. Where a SMILES comes first, the peptide text is derived from it. Bridges are numbered along the chain shown (N, C = ends). Roman numbers before positions name the chains, in order. [ ]: non-standard residue; d: D form. Actinocin(1to9) = Cc1c2oc3c(C)ccc(C(=O)[*:2])c3nc-2c(C(=O)[*:1])c(N)c1=O; NMeV = CN[CH](C(=O)O)C(C)C; Sar = CNCC(=O)O

The term TGI denotes the concentration giving total growth inhibition. Lower therefore signals more potent growth arrest. On to `CN(C)CCNc1ncnc2nc(-c3ccccc3)c(-c3ccccc3)nc12`, for which the TGI in experiment [1], in [2], in [3], in experiment [4], in experiment [5] and in [6] was more than 100 µM in each case. For the same compound, the TGI in experiment [7], in experiment [8], in experiment [9], in [10], in [11] and in [12] was more than 100 µM each time. Further, the TGI in experiment [13], in experiment [14], in [15] and in experiment [16] was more than 100 µM each time.
Turning to `CN1CCOC1(C)c1ccccc1` (stereo not drawn), the TGI in experiment [1], in [2], in [3], in experiment [4], in experiment [5] and in [6] was more than 100 µM throughout. Further, the TGI in experiment [7], in [8], in experiment [9], in experiment [10], in experiment [11] and in experiment [12] was more than 100 µM each time. Also, the concentration for total growth inhibition (TGI) in [17], in experiment [13], in experiment [14], in experiment [15] and in [16] was more than 100 µM each time.
Take `CN(C)C12C=CC=CC3=C(c4ccccc4)C(c4ccccc4)=C(c4ccccc4)C31c1ccccc1C2` (stereo not drawn): the TGI in experiment [2], in [3], in experiment [4], in [5], in [6] and in experiment [7] was more than 100 µM in each case. In addition, the TGI in [8], in experiment [9], in experiment [10], in experiment [11], in experiment [12] and in experiment [17] was more than 100 µM in each case. For the same compound, the TGI in experiment [13], in experiment [14] and in [16] was more than 100 µM in each case.
`CC1CCC2C(C)C(OC(=O)CCC(=O)O)OC3OC4(C)CCC1C32OO4` (stereo not drawn): the TGI in [1] is more than 100 µM; in [2], 36 µM; in [3] it was 4.65 µM; in [4], more than 100 µM; in experiment [5], more than 100 µM; in experiment [6], 13.6 µM. The TGI is 38.7 µM in experiment [7]; 57.8 µM in [9]; 29.1 µM in experiment [10]; 17.7 µM in experiment [11]; more than 100 µM in experiment [12]; more than 100 µM in [17]. In addition, the TGI in [13] was more than 100 µM; in experiment [14] it was 14.7 µM; in [15], more than 100 µM; in experiment [16], 3.88 µM.
Turning to `CCOC(=O)/C1=C(\C)N(Cc2ccccc2)C(=O)c2ccccc2C(=O)c2c(OC(C)=O)ccc(OC(C)=O)c21`, the TGI was more than 100 µM in experiment [1]; more than 100 µM in [2]; 79.1 µM in experiment [3]; more than 100 µM in [4]; more than 100 µM in [6]; more than 100 µM in [7]. Moreover, the TGI in experiment [8], in experiment [9], in experiment [10], in experiment [11], in experiment [12] and in [17] was more than 100 µM in each case. The TGI in experiment [13], in experiment [14], in [15] and in [16] was more than 100 µM each time.
Broadly, the GI50 is the concentration giving 50% growth inhibition. `COc1ccc(CC2NC(=O)C(NC(=O)c3c4nc5c(C(=O)NC6C(=O)NC(Cc7ccc(OC)cc7)C(=O)N7CCCC7C(=O)N(C)CC(=O)N(C)C(C(C)C)C(=O)OC6C)ccc(C)c5oc-4c(C)c(=O)c3N)C(C)OC(=O)C(C(C)C)N(C)C(=O)CN(C)C(=O)C3CCCN3C2=O)cc1` (stereo not drawn) (I: TY(Me)P[Sar][NMeV] / II: TY(Me)P[Sar][NMeV]; ester I:1-I:C, II:1-II:C; linker I:N-II:N via Actinocin(1to9); configuration not given here): the TGI in experiment [1] is 0.306 µM; in [2], 0.0418 µM; in experiment [3], less than 0.001 µM; in experiment [4], 0.265 µM; in experiment [5] it was 0.135 µM; in experiment [6] it was 0.0265 µM. For the same compound, the TGI is 0.0876 µM in [7]; 0.0234 µM and 0.0235 µM in experiment [8]; 0.419 µM and 0.67 µM in experiment [9]; 0.0257 µM in [10]; 0.0172 µM in experiment [11]; 3.43 µM and 0.539 µM in experiment [17]. For the same compound, the concentration for total growth inhibition (TGI) in [15] is 0.00628 µM and 0.0307 µM; in experiment [16], 0.46 µM and 0.257 µM. The GI50 in experiment [9] was 0.0302 µM; in experiment [16] it was 0.0327 µM.
On to `Cc1cccc2c(N)c3cccc(C(=O)NCCNCCN)c3nc12`, for which the total growth inhibition concentration (TGI) is 79.9 µM in experiment [1]; more than 100 µM in [2]; more than 100 µM in experiment [3]; 24.6 µM in experiment [4]; more than 100 µM in [5]; more than 78.8 µM in experiment [6]. The TGI in [7] is 58.6 µM; in experiment [8], 1.36 µM; in experiment [9], more than 100 µM; in experiment [10], 22.4 µM; in experiment [11], more than 58.4 µM; in [17] it was 33.8 µM. Moreover, the TGI was more than 100 µM in experiment [13], 95.4 µM in [14], 39.8 µM in [15] and 51.5 µM in experiment [16].
As for `COc1ccc(C[C@@H]2OC3(C=CC(=O)CC3Sc3ccccc3)O[C@H]2Cc2ccc(OC)cc2)cc1` (stereo partly drawn), the TGI in experiment [1] came out at 4.97 µM; in [2], 0.768 µM; in experiment [3] it was 6.06 µM; in [4] it was 4.19 µM; in [5] it was 2.75 µM; in experiment [6], 3.98 µM. The TGI in experiment [7] was determined as 4.98 µM; in [9], 2.58 µM; in experiment [10], 3 µM; in [11], 3.09 µM; in [12] it was 5.22 µM; in experiment [17] it was 10.3 µM. The TGI in experiment [13] amounted to 0.946 µM; in [14], 3.88 µM; in [15], 5.12 µM; in experiment [16] it was 2.28 µM.

The values are drawn from PubChem BioAssay (NCI).
